Literature values as cited in patent US20210113461A1, “Methods of Treating Fungal Infections” (CIPLA TECHNOLOGIES LLC, priority 2018, published 2021).
Where two headings read alike, the source gives them in different places.

Tests used:
[1] = oral solution
[2] = system: plasma protein

half-life at steady state [1]: 39.7 ± 13 h
steady-state AUC0-24h under fasted conditions as % of exposure under fed conditions [1]: 131±30%
mean AUC0-24h at steady-state ([1]; 200 mg daily dose, fasted): 29,271±10,285 ng·h/mL
mean Cmax at steady-state ([1]; 200 mg daily dose, fasted): 1,963±601 ng/mL
mean tmax at steady-state ([1]; 200 mg daily dose, fasted): 2.5 ± 0.8 h
increase of bioavailability under fasted conditions ([1]; healthy volunteers): 30%
bound by plasma protein ([2]; capsules): 99.6%
bound by plasma protein ([2]; oral solution): 99.8%
SMILES: CCC(C)n1ncn(-c2ccc(N3CCN(c4ccc(OCC5COC(Cn6cncn6)(c6ccc(Cl)cc6Cl)O5)cc4)CC3)cc2)c1=O (centres unmarked) [Itraconazole, itraconazole]
